# Measurements as given in ChEMBL document CHEMBL1201862, “PubChem BioAssay data set” (2004).
# Active and inactive are the calls of the source.
# What was measured:
# CHO-K1 = test: (§1) Counterscreen for antagonists of the orexin 1 receptor (OX1R; HCRTR1): Homogeneous time resolved fluorescence (HTRF)-based cell-based dose response assay to identify antagonists of the parental CHO-K1 cell line. [Related pubchem assays (depositor defined):AID434989, AID435008, AID463079, AID485270, AID492963, AID492964, AID492965, AID493232, AID504699, AID504701]; assay type: functional; conditions: Cricetulus griseus
# [1] = as §1, with “Fluorescence-based” for “Homogeneous time resolved fluorescence (HTRF)-based”, “cell-based high throughput” for “cell-based”, “CHO” for “CHO-K1”; assay type: functional
# Coagulation factor XII = target: T1, Coagulation factor XII (Homo sapiens, UniProt P00748); assay type: functional;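 further: activated factor XIIa alpha cleaving a fluorogenic AMC peptide substrate; inhibitor potency from loss of enzyme activity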
# T1 sequence (P00748 whole entry): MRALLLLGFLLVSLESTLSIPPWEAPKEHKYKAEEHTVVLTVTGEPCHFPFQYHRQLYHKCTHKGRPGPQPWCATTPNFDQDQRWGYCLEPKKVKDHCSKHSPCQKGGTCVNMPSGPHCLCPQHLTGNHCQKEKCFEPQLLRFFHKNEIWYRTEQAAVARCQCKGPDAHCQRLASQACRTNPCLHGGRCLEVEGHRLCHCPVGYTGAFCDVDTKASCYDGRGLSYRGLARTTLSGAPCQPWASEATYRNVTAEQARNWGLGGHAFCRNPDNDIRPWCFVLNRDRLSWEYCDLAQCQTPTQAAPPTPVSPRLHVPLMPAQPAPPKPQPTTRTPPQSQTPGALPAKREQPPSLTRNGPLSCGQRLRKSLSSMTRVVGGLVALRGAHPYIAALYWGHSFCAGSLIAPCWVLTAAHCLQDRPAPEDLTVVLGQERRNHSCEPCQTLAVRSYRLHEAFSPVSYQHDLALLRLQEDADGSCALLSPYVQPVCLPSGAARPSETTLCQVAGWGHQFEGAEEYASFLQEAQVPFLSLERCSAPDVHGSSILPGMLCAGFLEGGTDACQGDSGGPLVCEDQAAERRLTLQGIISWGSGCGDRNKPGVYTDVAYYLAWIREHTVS
# [2] = target: T2, Orexin/Hypocretin receptor type 1 (Homo sapiens, UniProt O43613); test: Homogeneous Time Resolved Fluorescence (HTRF)-based cell-based high throughput dose response assay for antagonists of the orexin 1 receptor (OX1R; HCRTR1). [Related pubchem assays (depositor defined):AID434989, AID435008, AID463079, AID485270, AID492963, AID492964, AID492965, AID493232, AID504717, AID504718]; assay type: functional
# T2 sequence (O43613 whole entry): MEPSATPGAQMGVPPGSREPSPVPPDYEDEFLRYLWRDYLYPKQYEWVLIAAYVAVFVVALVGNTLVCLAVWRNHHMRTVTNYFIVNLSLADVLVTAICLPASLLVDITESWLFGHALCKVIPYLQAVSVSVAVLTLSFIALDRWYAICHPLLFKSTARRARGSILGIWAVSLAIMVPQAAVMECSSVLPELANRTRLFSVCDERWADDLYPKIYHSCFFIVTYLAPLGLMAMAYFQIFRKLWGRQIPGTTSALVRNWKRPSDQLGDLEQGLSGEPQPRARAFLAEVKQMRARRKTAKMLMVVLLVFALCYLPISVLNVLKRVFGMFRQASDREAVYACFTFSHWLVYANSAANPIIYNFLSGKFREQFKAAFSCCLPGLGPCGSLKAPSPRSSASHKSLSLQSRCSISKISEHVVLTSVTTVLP
# [3] = target: T2, Orexin/Hypocretin receptor type 1; test: Fluorescence-based cell-based high throughput dose response assay for antagonists of the orexin 1 receptor (OX1R; HCRTR1). [Related pubchem assays (depositor defined):AID434989, AID435008, AID463079, AID485270, AID492963, AID492964, AID492965, AID493232, AID504717, AID504718]; assay type: functional
# Orexin receptor type 2 [4] = target: T3, Orexin receptor type 2 (Homo sapiens, UniProt O43614); test: Counterscreen assay for antagonists of the orexin 1 receptor (OX1R; HCRTR1): Fluorescence-based cell-based dose response assay for antagonists of the orexin 2 receptor (OX2R; HCRTR2), run by assay provider.; assay type: functional
# T3 sequence (O43614 whole entry): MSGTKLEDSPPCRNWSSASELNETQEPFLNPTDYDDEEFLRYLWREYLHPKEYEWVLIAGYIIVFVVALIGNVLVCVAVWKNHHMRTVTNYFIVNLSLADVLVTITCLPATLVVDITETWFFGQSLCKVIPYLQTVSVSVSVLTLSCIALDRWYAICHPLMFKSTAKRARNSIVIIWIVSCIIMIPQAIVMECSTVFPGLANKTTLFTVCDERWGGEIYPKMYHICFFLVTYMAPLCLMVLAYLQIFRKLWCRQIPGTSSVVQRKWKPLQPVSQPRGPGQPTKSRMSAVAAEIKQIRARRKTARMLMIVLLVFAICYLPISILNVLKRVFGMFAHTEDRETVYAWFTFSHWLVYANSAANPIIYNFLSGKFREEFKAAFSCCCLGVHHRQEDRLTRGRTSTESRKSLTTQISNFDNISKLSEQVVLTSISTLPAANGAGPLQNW
# Orexin receptor type 2 [5] = target: T3, Orexin receptor type 2; test: Counterscreen assay for antagonists of the orexin 1 receptor (OX1R; HCRTR1): Homogeneous Time Resolved Fluorescence (HTRF)-based cell-based dose response assay for antagonists of the orexin 2 receptor (OX2R; HCRTR2), run by assay provider.; assay type: functional
# [6] = target: DNA dC->dU-editing enzyme APOBEC-3G (Homo sapiens, UniProt Q9HC16); test: inhibition of APOBEC3G ssDNA deamination – biochemical, fluorescence, single-stranded DNA substrate, SAR follow-up (AID 602136); assay type: functional; conditions: read-out: IC50_Mean
# [7] = target: DNA dC->dU-editing enzyme APOBEC-3A (Homo sapiens, UniProt P31941); test: SAR analysis of small molecule inhibitors of APOBEC3A DNA Deaminase via a fluorescence-based single-stranded DNA deaminase assay.; assay type: functional; conditions: read-out: IC50_Mean
# [8] = target: Induced myeloid leukemia cell differentiation protein Mcl-1 (Homo sapiens, UniProt Q07820); assay type: functional
# [9] = target: T4, Probable nicotinate-nucleotide adenylyltransferase (Staphylococcus aureus (strain N315), UniProt P65502); assay type: functional, Staphylococcus aureus subsp. aureus N315;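 on IC50 Mean: confirmatory dose-response retesting of NadD inhibitor hits first found in an ultra-high-throughput screen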
# [10] = target: T4, Probable nicotinate-nucleotide adenylyltransferase; assay type: functional, Staphylococcus aureus subsp. aureus N315; conditions: read-out: IC50_Mean
# cells = assay type: functional
# [11] = target: Benomyl/methotrexate resistance protein (Candida albicans, UniProt P28873); test: Candida albicans Mdr1 pump inhibition curves – singleplex, Cherry Pick1 hits, dose response (AID 588608); assay type: functional
# [12] = target: T5, Multidrug resistance protein CDR2 (Candida albicans (strain SC5314 / ATCC MYA-2876) (Yeast), UniProt P78595); test: inhibition of Nile Red efflux via Candida CDR2 – S. cerevisiae AD1-8u, singleplex, Cherry Pick1 hits, dose response (AID 588604); assay type: functional
# T5 sequence (P78595 whole entry): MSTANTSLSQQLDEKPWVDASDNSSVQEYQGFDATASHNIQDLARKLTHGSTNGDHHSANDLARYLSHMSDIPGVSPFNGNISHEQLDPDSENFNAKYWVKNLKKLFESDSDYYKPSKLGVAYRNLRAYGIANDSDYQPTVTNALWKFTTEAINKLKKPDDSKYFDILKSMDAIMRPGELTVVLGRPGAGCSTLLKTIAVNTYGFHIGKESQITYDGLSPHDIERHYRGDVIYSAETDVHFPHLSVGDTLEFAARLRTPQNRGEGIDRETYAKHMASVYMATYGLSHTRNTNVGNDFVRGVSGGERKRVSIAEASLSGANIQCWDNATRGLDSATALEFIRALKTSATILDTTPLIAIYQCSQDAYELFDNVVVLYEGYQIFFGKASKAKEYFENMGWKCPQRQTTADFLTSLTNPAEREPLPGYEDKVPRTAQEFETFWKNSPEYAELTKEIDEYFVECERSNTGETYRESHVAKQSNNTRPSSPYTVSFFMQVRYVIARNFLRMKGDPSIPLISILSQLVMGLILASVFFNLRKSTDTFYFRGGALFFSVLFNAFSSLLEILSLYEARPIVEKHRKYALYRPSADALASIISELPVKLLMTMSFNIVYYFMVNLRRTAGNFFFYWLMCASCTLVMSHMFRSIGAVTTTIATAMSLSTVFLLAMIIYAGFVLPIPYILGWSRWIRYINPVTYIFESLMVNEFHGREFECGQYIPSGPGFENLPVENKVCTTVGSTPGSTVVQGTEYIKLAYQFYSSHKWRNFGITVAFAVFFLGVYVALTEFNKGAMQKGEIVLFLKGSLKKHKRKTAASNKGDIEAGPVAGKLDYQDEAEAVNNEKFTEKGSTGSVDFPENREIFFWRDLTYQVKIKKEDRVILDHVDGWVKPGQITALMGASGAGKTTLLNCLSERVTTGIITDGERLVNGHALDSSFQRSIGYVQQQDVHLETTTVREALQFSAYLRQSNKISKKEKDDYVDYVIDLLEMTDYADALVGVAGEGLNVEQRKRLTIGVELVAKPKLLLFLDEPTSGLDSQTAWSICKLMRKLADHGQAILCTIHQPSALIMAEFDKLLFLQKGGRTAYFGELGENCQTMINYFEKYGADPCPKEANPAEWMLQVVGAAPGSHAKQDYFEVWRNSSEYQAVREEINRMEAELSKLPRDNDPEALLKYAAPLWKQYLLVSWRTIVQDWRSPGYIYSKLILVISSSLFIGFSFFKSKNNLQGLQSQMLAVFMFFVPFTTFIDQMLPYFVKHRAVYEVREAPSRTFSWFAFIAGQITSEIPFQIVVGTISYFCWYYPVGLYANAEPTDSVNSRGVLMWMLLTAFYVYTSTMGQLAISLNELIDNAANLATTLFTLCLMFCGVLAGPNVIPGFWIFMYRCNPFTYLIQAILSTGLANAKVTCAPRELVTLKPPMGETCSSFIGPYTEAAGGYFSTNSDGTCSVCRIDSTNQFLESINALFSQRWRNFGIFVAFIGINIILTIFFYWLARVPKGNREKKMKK
# T4 sequence (P65502 whole entry): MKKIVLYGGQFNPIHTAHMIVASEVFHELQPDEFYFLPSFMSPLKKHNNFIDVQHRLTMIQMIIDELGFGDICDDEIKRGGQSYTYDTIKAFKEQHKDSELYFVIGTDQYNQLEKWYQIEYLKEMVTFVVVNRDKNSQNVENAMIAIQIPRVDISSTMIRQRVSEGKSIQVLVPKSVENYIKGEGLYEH
# Chain of Benomyl/methotrexate resistance protein (P28873 whole entry): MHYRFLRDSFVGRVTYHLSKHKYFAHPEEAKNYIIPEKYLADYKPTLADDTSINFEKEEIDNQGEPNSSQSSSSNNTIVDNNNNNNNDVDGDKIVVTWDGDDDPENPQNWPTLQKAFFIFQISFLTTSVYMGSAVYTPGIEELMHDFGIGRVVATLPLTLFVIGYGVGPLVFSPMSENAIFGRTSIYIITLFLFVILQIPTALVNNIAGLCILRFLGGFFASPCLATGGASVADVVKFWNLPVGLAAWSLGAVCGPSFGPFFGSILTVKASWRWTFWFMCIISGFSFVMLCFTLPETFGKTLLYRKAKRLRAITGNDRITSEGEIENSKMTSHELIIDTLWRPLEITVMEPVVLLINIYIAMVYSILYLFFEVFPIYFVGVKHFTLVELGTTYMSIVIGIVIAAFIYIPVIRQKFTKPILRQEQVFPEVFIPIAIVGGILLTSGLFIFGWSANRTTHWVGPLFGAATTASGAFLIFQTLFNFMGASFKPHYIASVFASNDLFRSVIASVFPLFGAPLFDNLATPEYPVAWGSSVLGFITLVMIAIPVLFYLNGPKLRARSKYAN
# Chain of DNA dC->dU-editing enzyme APOBEC-3G (Q9HC16 whole entry): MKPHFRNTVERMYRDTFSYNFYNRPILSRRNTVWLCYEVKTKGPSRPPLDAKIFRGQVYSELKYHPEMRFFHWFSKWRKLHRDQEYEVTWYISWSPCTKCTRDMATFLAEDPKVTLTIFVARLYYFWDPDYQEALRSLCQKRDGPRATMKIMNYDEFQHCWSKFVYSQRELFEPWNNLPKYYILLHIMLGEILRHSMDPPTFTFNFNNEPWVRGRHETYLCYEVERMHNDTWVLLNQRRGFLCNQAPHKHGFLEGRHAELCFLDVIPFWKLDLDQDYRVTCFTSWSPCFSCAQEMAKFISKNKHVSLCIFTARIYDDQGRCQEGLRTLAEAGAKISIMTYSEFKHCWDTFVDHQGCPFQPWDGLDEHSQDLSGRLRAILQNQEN
# Chain of Induced myeloid leukemia cell differentiation protein Mcl-1 (Q07820 whole entry): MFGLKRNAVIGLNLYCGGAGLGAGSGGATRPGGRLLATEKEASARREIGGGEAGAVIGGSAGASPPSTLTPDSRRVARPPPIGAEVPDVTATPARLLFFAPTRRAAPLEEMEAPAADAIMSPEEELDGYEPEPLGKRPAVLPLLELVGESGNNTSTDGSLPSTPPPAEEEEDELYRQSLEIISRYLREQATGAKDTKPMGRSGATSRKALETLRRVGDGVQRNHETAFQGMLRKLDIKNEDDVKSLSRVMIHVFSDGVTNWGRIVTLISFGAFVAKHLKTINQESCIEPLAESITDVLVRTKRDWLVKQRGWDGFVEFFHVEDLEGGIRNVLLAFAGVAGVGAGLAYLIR
# Chain of DNA dC->dU-editing enzyme APOBEC-3A (P31941 whole entry): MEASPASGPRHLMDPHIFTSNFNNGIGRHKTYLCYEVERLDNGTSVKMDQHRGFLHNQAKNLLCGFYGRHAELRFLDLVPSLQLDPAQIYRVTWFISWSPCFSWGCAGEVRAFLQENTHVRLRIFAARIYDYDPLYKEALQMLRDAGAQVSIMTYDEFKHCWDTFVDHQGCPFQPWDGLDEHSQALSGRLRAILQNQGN
smiles,measurement,setting,value
Cc1ccc(C(=O)N/C(=C/c2ccc(-c3cccc([N+](=O)[O-])c3)o2)C(=O)NC(C)(C)C)cc1,IC50,CHO-K1,> 66.3 µM (inactive)
same,IC50,[1],> 49.8 µM (inactive)
same,IC50,Coagulation factor XII,> 50 µM (inactive)
same,IC50,[2],2.09 µM (active)
same,IC50,[3],> 5.53 µM (active)
same,IC50,Orexin receptor type 2 [4],27.9 µM (inactive)
same,IC50,Orexin receptor type 2 [5],2.42 µM (active)
CCC(C)n1c(SCC(=O)NCc2ccco2)nnc1-c1cccc(S(=O)(=O)N2CCOCC2)c1 (stereo not given),IC50,[6],> 99 µM (inactive)
same,IC50,[7],> 99 µM (inactive)
COc1ccc(/C=C2\SC(=O)N(CCC(=O)Nc3ccc(S(=O)(=O)Nc4nccs4)cc3)C2=O)cc1,IC50,[8],3.11 µM (active)
same,IC50,[9],15.2 µM (active)
same,IC50,[10],73.1 µM (active)
COc1ccc(CCOC(=O)c2ccc(N)c([N+](=O)[O-])c2)cc1,IC50,cells,21 µM (active)
same,EC50,[11],0.011 µM (active)
same,EC50,[12],4.29 µM (active)
